The values below come from patent US5110831A, “Vinylogous hydroxamic acids and derivatives thereof as 5-lipoxygenase inhibitors” (Du Pont Merck Pharmaceutical Company, priority 1990, dated 1992).

One assay deals with T1, RBL-1 5-Lipoxygenase (Rattus norvegicus, UniProt P12527).
T1 construct: supernatant from homogenized RBL-1 cells; endogenous in cells; host or cells: RBL-1 cells (10,000×g supernatant of homogenate)
T1 sequence (P12527 1-673): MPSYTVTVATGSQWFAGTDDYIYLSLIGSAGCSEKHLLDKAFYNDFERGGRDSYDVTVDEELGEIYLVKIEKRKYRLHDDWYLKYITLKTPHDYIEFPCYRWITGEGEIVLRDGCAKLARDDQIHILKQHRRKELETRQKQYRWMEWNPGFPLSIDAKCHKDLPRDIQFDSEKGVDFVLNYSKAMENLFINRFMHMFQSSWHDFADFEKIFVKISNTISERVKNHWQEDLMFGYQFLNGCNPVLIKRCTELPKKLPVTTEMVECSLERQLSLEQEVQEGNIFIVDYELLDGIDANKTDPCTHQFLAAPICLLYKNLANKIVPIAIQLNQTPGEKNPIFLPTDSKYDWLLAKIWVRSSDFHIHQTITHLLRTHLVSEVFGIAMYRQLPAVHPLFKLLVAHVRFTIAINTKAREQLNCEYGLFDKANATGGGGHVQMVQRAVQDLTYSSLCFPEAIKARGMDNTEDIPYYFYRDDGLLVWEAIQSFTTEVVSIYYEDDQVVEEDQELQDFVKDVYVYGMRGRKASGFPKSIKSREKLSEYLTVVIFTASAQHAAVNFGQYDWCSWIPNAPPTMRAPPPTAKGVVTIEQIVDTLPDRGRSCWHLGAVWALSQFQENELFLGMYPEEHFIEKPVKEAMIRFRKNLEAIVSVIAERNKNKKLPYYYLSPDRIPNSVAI
The experiment in a line: RBL-1 5-lipoxygenase assay (10,000×g supernatant from homogenized RBL-1 cells, [14C] arachidonic acid). As to conditions: pH 7.0, 37° C., 5 min preincubation, 0.042 mM arachidonic acid; linear regression on three concentrations. It is filed as biochemical. As for the experimental part: The potencies of the compounds as 5-lipoxygenase inhibitors were determined using a RBL-1 5-lipoxygenase assay. The procedure of Jakschik et al. was used (Jakschik, B. A.; Lee, L. H.; Shuffer, G.; Parker, C. W., Prostaglandins, 1978, 16, 733; Jakschik, B. A.; Sun, F. F.; Lee, L. H.; Steinhoff, M. M. Biochem. Biophys. Res. Commun., 1980, 95, 100; […]., Biochem. Biophys. Res. Commun., 1981, 102, 624). The enzyme was prepared as a 10,000×gsupernatant from homogenized RBL-1 cells. Because of variability in the enzyme content from culture to culture, an amount of supernatant was chosen to give a net production of 3300-3800 dpm of 5-HETE under the assay conditions (total cell protein 9-20 μg/assay). All reactions were run in duplicate. In a total volume of 100 μL, the appropriate amount of enzyme was incubated with test compound (prepared in 5% DMSO, 95% 0.2 M Tris, pH 8.5) in a phosphate buffer (45 mM sodium phosphate, 0.83 mM EDTA, 0.083% gelatin, 0.1 mM glutathione, 0.83 mM calcium chloride, 0.012 mM indomethacin) at pH 7.0 and 37° C. for 5 min. The reaction was initiated by the addition of 20 μL of a solution of arachidonic acid in phosphate buffer. […] Remaining products were eluted with methanol/water/acetic acid (70:30:1). Activity was measured as the total radioactivity in the 5-LO products, and inhibition was calculated at (1-D/C)×100%, where D is the activity in the presence of the test compound and C is the control activity.
As a reminder, the IC50 is the concentration needed to halve the response being measured. Read a low IC50 as greater potency. In turn, `CN(O)C=CC(=O)c1ccc(OCc2ccccc2)cc1` [Example 1a, 1-(4-(Benzyloxy)phenyl)-3-(N-hydoxy-N-methyl)aminoprop-2-en-1-one] registered an IC50 of 1600 nM. This counts as single-digit micromolar.

In turn, `CC(c1ccc2ccccc2c1)N(O)C=CC(=O)c1ccc2ccccc2c1` (stereo not drawn) [Example 1b] returned an IC50 of 2200 nM.

In the case of `O=C(C=CN(O)C1CCCCC1)c1ccc2ccccc2c1` [Example 1c], the IC50 came out at 2500 nM.

On to `O=C(C=CN(O)Cc1ccc(OCc2ccccc2)cc1)C1CC1` [Example 1e], for which it took 3100 nM to reach half-maximal inhibition (IC50). The IC50 values of the last two molecules are within 1.5-fold of each other.

`CN(O)C=CC(=O)c1cc2ccccc2s1` [Example 1i]: the IC50 worked out at 440 nM.

Molecule `O=C(C=CN(O)Cc1ccc2ccccc2c1)C1CC1` [Example 1j] had a concentration for half-maximal inhibition (IC50) of 1500 nM.

Consider `O=C(C=CN(O)Cc1ccccc1)c1ccc2ccccc2c1` [Example 2a, 1-(2-naphthyl)-3-(N-hydoxy-N-benzyl) aminoprop-2-en-1-one], for which 2300 nM corresponded to half-maximal inhibition (IC50). Against the preceding molecule, the IC50 is about 1.5-fold higher.

`O=C(C=CN(O)c1ccccc1)c1ccc2ccccc2c1` [Example 2b] had an IC50 of 1100 nM.

`O=C(C=CN(O)Cc1ccccc1)c1ccc(Cl)cc1` [Example 2e] showed an IC50 of 250 nM.

`CC(=O)C=CN(O)Cc1ccc(OCc2ccccc2)cc1` [Example 3a]: the IC50 was 7700 nM.

Tested on in a further assay: not given
Assay: not given
The conditions noted are these: times the activity of histamine; cited from earlier work.
Regarding `CCCCC/C=C\C\C=C/C=C/C=C/[C@@H](SC[C@H](NC(=O)CC[C@H](N)C(=O)O)C(=O)NCC(=O)O)[C@@H](O)CCCC(=O)O` [LTC4], the “spasmogen activity relative to histamine” value was 1000 times.

As to `CCCCC/C=C\C\C=C/C=C/C=C/[C@@H](SC[C@H](N)C(=O)NCC(=O)O)[C@@H](O)CCCC(=O)O` [LTD4], the “spasmogen activity relative to histamine” value was 1000 times.

Take `CCCCC/C=C\C\C=C/C=C/C=C/[C@@H](SC[C@H](N)C(=O)O)[C@@H](O)CCCC(=O)O` [LTE4]: the “spasmogen activity relative to histamine” value is 1000 times.

Tested on in another assay: not given
Assay: not given
The conditions noted are these: cited from earlier work.
As to `CCCCC/C=C\C\C=C/C=C/C=C/[C@@H](SC[C@H](NC(=O)CC[C@H](N)C(=O)O)C(=O)NCC(=O)O)[C@@H](O)CCCC(=O)O` [LTC4], the “effect of inhaled LTC4” value is “causes the immediate development of symptoms resembling those of an asthmatic attack”.

The next assay has as its system inflammatory cells such as polymorphonuclear leukocytes.
Assay: not given
As to conditions: cited from earlier work.
Consider `CCCCC/C=C\C[C@@H](O)/C=C/C=C/C=C\[C@@H](O)CCCC(=O)O` [LTB4], for which the “chemotactic activity for inflammatory cells” value is “potent chemotactic factors”.
